Measurements from patent US8461205B2, “Anthranilic acid derivatives” (Chelsea Therapeutics, Inc., priority 2007, dated 2013).

Columns and labels:
[1] = test system: human T lymphoblast cell line (Jurkat); assay: Inhibition of T-cell proliferation (Jurkat, 3H-TdR incorporation); format: cell-based; conditions: for IC50: Homo sapiens, Jurkat cells, 3 days culture, 3H-TdR pulse last 4 hours; for inhibitory effect on T-cell proliferation (in words): Jurkat, cf. Table 1
Description: Inhibition of T cell proliferation was studied in a functional assay. A human T lymphoblast cell line (Jurkat) was cultured in the presence and absence, respectively, of DHODH inhibiting compounds. Jurkat cells were seeded in microtiterplates at a concentration of 5×10^5/mL in RPMI 1640 growth media supplemented with ultraglutamin, 10% fetal calf serum, 1 mM sodium pyruvat, 10 mM HEPES and 0.1 mg/mL gentamycin. A dilution series of ten different concentrations of inhibitor was added to the wells and the plates were kept in a cell incubator for 3 days. At the beginning of the last 4 hours period, the cultures were pulsed with 10 μl/well 0.1 Ci/mmol 3H-TdR and then harvested on filter papers and counted with a ([…]. The IC50 values for each compound were calculated from the obtained dose response curves. Adding uridine to a concentration of about 50 μM in the wells monitored the specificity for the mechanism i.e., the inhibition of cell proliferation is due to DHODH inhibition and not to a general cell toxicity of the compounds. This addition of uridine reverses the anti-proliferative effect by bypassing the DHODH enzyme using an external source of pyrimidine. Results in respect of a number of compounds of the invention are reported as Jurkat IC50 (in μM) in Table 1.
(§1) The inhibition of T cell proliferation was studied in a human T lymphoblast cell line (Jurkat). The IC50 value for each compound was calculated from the dose response curve. Adding uridine was used to monitor the specificity of the DHODH mechanism. The metabolic stability was studied in human liver microsomes. Table 1 exemplifies the invention, without limiting the scope thereof.

[2] = Metabolic stability in human liver microsomes; format: in vitro ADME; conditions: for half-life at 0.5 μM / t1/2: human liver microsomes, 0.5 μM compound, 1 mg/mL protein, 1 mM NADPH, pH 7.4, 37° C., "stable" = no degradation could be confirmed
Description: The metabolic stability of the test compounds was determined using human liver microsomes. Incubations were performed with a compound concentration of 0.5 μM and a protein concentration of 1 mg/mL in 50 mM sodium phosphate buffer at physiological pH (7.4) and temperature (37° C.). The incubation mixture was preincubated at 37° C. prior to addition of NADPH (1 mM, final concentration). At several time points during 60 minutes, aliquots were removed and added to a 96 well plate placed on dry ice and deep-frozen. Samples were analyzed with LC-MS for concentration of parent compound. From the slope of the log [parent compound] vs. incubation time regression line, the in vitro half-life […] was determined. The intrinsic clearance (CLint) can be calculated using a modified Michaelis-Menten relationship, i.e., CLint=ln 2/t1/2. The CLint can then be converted to CL by using the well-stirred model of hepatic extraction. A value of 1.24 L/h/kg of the hepatic blood flow in man can be used. Results with respect to a number of compounds of the invention are reported as t1/2 (in minutes) in Table 1.
as §1

| IC50 [1] [nM] | half-life at 0.5 μM [2] [h] | oxidation half-life / stability towards oxidation by human P450 (in words) ([2]; human in vitro system, cf. Table 1) | t1/2 [2] | Compound | inhibitory effect on T-cell proliferation (in words) [1] |
| --- | --- | --- | --- | --- | --- |
| 6200 | – | short half-life | – | COc1ccc(OC)c(COc2ccc(NC(C)=O)c(C(=O)O)c2)c1 [REF 8, 2-acetylamino-5-(2,5-dimethoxy-benzyloxy)-benzoic acid, reference compound] | only a weak inhibitory effect |
| 730 | 1.2 | – | – | CCC(=O)Nc1ccc(COc2ccc(Br)c(Cl)c2)cc1C(=O)O [INV 20, 5-(4-Bromo-3-chloro-phenoxymethyl)-2-propionylamino-benzoic acid] | – |
| 420 | – | – | stable | CCC(=O)Nc1ccc(COc2ccc(C(F)(F)F)cc2Cl)cc1C(=O)O [INV 4, 5-(2-Chloro-4-trifluoromethyl-phenoxymethyl)-2-propionylamino-benzoic acid] | – |
| 530 | 1.73 | – | – | CCC(=O)Nc1ccc(COc2ccc(F)c(C(F)(F)F)c2)cc1C(=O)O [INV 17, 5-(4-Fluoro-3-trifluoromethyl-phenoxymethyl)-2-propionylamino-benzoic acid] | – |
| 490 | 6.8 | – | – | CCC(=O)Nc1ccc(COc2ccc(C(F)(F)F)cc2Br)cc1C(=O)O [INV 7, 5-(2-Bromo-4-trifluoromethyl-phenoxymethyl)-2-propionylamino-benzoic acid] | – |
| 50 | 1.75 | – | – | CCC(=O)Nc1ccc(/C=C/c2ccc(Cl)cc2C(F)(F)F)cc1C(=O)O [INV 13, 5-[(E)-2-(4-Chloro-2-trifluoromethyl-phenyl)-vinyl]-2-propionylamino-benzoic acid] | – |
| 35 | 2.28 | – | – | CCC(=O)Nc1ccc(/C=C/c2ccc(F)cc2Cl)cc1C(=O)O [INV 15, 5-[(E)-2-(2-Chloro-4-fluoro-phenyl)-vinyl]-2-propionylamino-benzoic acid] | – |
| 600 | – | – | – | CCC(=O)Nc1ccc(/C=C/c2ccc(OC(F)(F)F)c(Cl)c2)cc1C(=O)O [INV 28, 5-[(E)-2-(3-Chloro-4-trifluoromethoxy-phenyl)-vinyl]-2-propionylamino-benzoic acid] | – |
| 190 | 5.38 | – | – | CCC(=O)Nc1ccc(COc2ccc(F)cc2Cl)cc1C(=O)O [INV 5, 5-(2-Chloro-4-fluoro-phenoxymethyl)-2-propionylamino-benzoic acid] | – |
| 890 | 2.8 | – | – | CCC(=O)Nc1ccc(COc2ccc(OC(F)(F)F)c(Cl)c2)cc1C(=O)O [INV 21, 5-(3-Chloro-4-trifluoromethoxy-phenoxymethyl)-2-propionylamino-benzoic acid] | – |
| 750 | 2.45 | – | – | CCC(=O)Nc1ccc(/C=C/c2ccc(F)c(C(F)(F)F)c2)cc1C(=O)O [INV 23, 5-[(E)-2-(4-Fluoro-3-trifluoromethyl-phenyl)-vinyl]-2-propionylamino-benzoic acid] | – |
| 350 | 3.32 | – | – | CCC(=O)Nc1ccc(COc2ccc(Cl)cc2Cl)cc1C(=O)O [INV 6, 5-(2,4-Dichloro-phenoxymethyl)-2-propionylamino-benzoic acid] | – |
| 600 | – | – | stable | CCC(=O)Nc1ccc(COc2ccc(C(F)(F)F)cc2C(F)(F)F)cc1C(=O)O [INV 1, 5-(2,4-Bis-trifluoromethyl-phenoxymethyl)-2-propionylamino-benzoic acid] | – |
| 420 | 1.18 | – | – | CCC(=O)Nc1ccc(COc2ccc(F)c(Cl)c2)cc1C(=O)O [INV 19, 5-(3-Chloro-4-fluoro-phenoxymethyl)-2-propionylamino-benzoic acid] | – |
| 20 | 1.83 | – | – | CCC(=O)Nc1ccc(/C=C/c2ccc(Cl)cc2Cl)cc1C(=O)O [INV 16, 5-[(E)-2-(2,4-Dichloro-phenyl)-vinyl]-2-propionylamino-benzoic acid] | – |
| 360 | 5.33 | – | – | CCC(=O)Nc1ccc(COc2ccc(F)cc2Br)cc1C(=O)O [INV 8, 5-(2-Bromo-4-fluoro-phenoxymethyl)-2-propionylamino-benzoic acid] | – |
| 160 | 2.65 | – | – | CCC(=O)Nc1ccc(/C=C/c2ccc(F)cc2C(F)(F)F)cc1C(=O)O [INV 12, 5-[(E)-2-(4-Fluoro-2-trifluoromethyl-phenyl)-vinyl]-2-propionylamino-benzoic acid] | – |

The remaining lines, values behind:

| Compound | IC50 [1] [nM] | half-life at 0.5 μM [2] [h] | oxidation half-life / stability towards oxidation by human P450 (in words) ([2]; human in vitro system, cf. Table 1) | t1/2 [2] | inhibitory effect on T-cell proliferation (in words) [1] |
| --- | --- | --- | --- | --- | --- |
| CCC(=O)Nc1ccc(/C=C/c2ccc(F)cc2F)cc1C(=O)O [INV 14, 5-[(E)-2-(2,4-Difluoro-phenyl)-vinyl]-2-propionylamino-benzoic acid] | 240 | 3.55 | – | – | – |
| O=C(O)c1cc(OCc2ccc(Br)cc2C(F)(F)F)ccc1NC(=O)C1CC1 [INV 31, 5-(4-Bromo-2-trifluoromethyl-benzyloxy)-2-(cyclopropanecarbonyl-amino)-benzoic acid] | 420 | 3.87 | – | – | – |
| CCC(=O)Nc1ccc(/C=C/c2ccc(F)c(Cl)c2)cc1C(=O)O [INV 26, 5-[(E)-2-(3-Chloro-4-fluoro-phenyl)-vinyl]-2-propionylamino-benzoic acid] | 750 | 1.22 | – | – | – |
| CCC(=O)Nc1ccc(/C=C/c2ccc(Cl)c(Cl)c2)cc1C(=O)O [INV 27, 5-[(E)-2-(3,4-Dichloro-phenyl)-vinyl]-2-propionylamino-benzoic acid] | 480 | 1.92 | – | – | – |
| CCC(=O)Nc1ccc(OCc2ccccc2C(F)(F)F)cc1C(=O)OC [REF 10, 2-Propionylamino-5-(2-trifluoromethyl-benzyloxy)-benzoic acid methyl ester, reference compound] | 12300 | – | – | – | – |
| CCC(=O)Nc1ccc(OCc2ccc(C(F)(F)F)cc2Br)cc1C(=O)O [INV 30, 5-(2-Bromo-4-trifluoromethyl-benzyloxy)-2-propionylamino-benzoic acid] | 590 | 3.18 | – | – | – |
| CCC(=O)Nc1ccc(/C=C/c2ccc(C(F)(F)F)cc2C(F)(F)F)cc1C(=O)O [INV 11, 5-[(E)-2-(2,4-Bis-trifluoromethyl-phenyl)-vinyl]-2-propionylamino-benzoic acid] | 90 | 8.15 | – | – | – |
| COc1ccc(OC)c(CCc2ccc(NC(C)=O)c(C(=O)O)c2)c1 [REF 9, 2-acetylamino-5-[2-(2,5-dimethoxy-phenyl)-ethyl]-benzoic acid, reference compound] | 12000 | – | – | – | very weak inhibitory effect |
| CCC(=O)Nc1ccc(COc2ccc(Br)cc2C(F)(F)F)cc1C(=O)O [INV 3, 5-(4-Bromo-2-trifluoromethyl-phenoxymethyl)-2-propionylamino-benzoic acid] | 470 | 3.9 | – | – | – |
| CCC(=O)Nc1ccc(OCc2ccc(Cl)cc2C(F)(F)F)cc1C(=O)O [INV 29, 5-(4-Chloro-2-trifluoromethyl-benzyloxy)-2-propionylamino-benzoic acid] | 570 | 1.83 | – | – | – |
| CCC(=O)Nc1ccc(COc2ccc(OC(F)(F)F)c(Br)c2)cc1C(=O)O [INV 22, 5-(3-Bromo-4-trifluoromethoxy-phenoxymethyl)-2-propionylamino-benzoic acid] | 710 | 3.3 | – | – | – |
| CCC(=O)Nc1ccc(COc2ccc(F)cc2C(F)(F)F)cc1C(=O)O [INV 2, 5-(4-Fluoro-2-trifluoromethyl-phenoxymethyl)-2-propionylamino-benzoic acid] | 580 | 3.93 | – | – | – |
| CCC(=O)Nc1ccc(COc2ccc(Cl)cc2Br)cc1C(=O)O [INV 9, 5-(2-Bromo-4-chloro-phenoxymethyl)-2-propionylamino-benzoic acid] | 240 | 2.8 | – | – | – |
| CCC(=O)Nc1ccc(/C=C/c2ccc(Cl)c(C(F)(F)F)c2)cc1C(=O)O [INV 24, 5-[(E)-2-(4-Chloro-3-trifluoromethyl-phenyl)-vinyl]-2-propionylamino-benzoic acid] | 570 | 5.75 | – | – | – |
| CCC(=O)Nc1ccc(/C=C/c2ccc(C(F)(F)F)c(F)c2)cc1C(=O)O [INV 25, 5-[(E)-2-(3-Fluoro-4-trifluoromethyl-phenyl)-vinyl]-2-propionylamino-benzoic acid] | 740 | – | – | stable | – |
